From patent US20200361895A1, “NOVEL SULFONAMIDE CARBOXAMIDE COMPOUNDS” (Inflazome Limited, priority 2017, published 2020)
Structures can show the parent of a compound that is named as a salt.

How the values were obtained:
NLRP3 [1] = biological target: T1, NLRP3 (Homo sapiens, UniProt Q96P20); assay: THP-1 cells pyroptosis assay (LPS + nigericin, resazurin readout; THP IC50); type: cell-based; design: Seed THP-1 cells (25,000 cells/well) containing 1.0 μg/ml LPS in 40 μl of RPMI medium; host or cells: THP-1 cells
Procedure, shortened: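 Human THP-1 cells, 25,000/well in serum-free RPMI with 1 μg/ml LPS, treated 3 hrs at 37° C with compound (8-point half-log, 10 μM top, 0.1% DMSO), then 5 μM nigericin 1 hr. Viability by 100 μM resazurin fluorescence after 1-2 hrs; IC50 by 4-parameter fit.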

NLRP3 [2] = biological target: T1, NLRP3; assay: Human whole blood IL1β release assay (LPS + nigericin, AlphaLisa IL-1β; HWB IC50); type: cell-based; design: Human whole blood in Li-heparin tubes was obtained from healthy donors from a volunteer donor panel; from tissue; host or cells: human whole blood from healthy donors; conditions: IL-1β release
Protocol: For systemic delivery, the ability to inhibit NLRP3 when the compounds are present within the bloodstream is of great importance. For this reason, the NLRP3 inhibitory activity of a number of compounds in human whole blood was investigated in accordance with the following protocol.
Human whole blood in Li-heparin tubes was obtained from healthy donors from a volunteer donor panel. • 1. Plate out 80 μl of whole blood containing 1 μg/ml of LPS in 96-well, clear bottom cell culture plate (Corning #3585) • 2. Add 10 μl compound (8 points half-log dilution with 10 μM top dose) or vehicle (DMSO 0.1% FAC) to the appropriate wells • 3. Incubate for 3 hrs at 37° C., 5% CO2 • 4. Add 10 μl nigericin (Sigma #N7143) (10 μM FAC) to all wells • 5. Incubate for 1 hr at 37° C., 5% CO2 • 6. At the end of the incubation period, spin plates at 300×g for 5 mins to pellet cells and remove 20 μl of supernatant and add to 96-well v-bottom plates for IL-1β analysis (note: these plates containing the supernatants can be stored at −80° C. to be analysed at a later date) • 7. IL-1β was measured according to the manufacturer protocol (Perkin Elmer-AlphaLisa IL-1 Kit AL220F-5000) • 8. IC50 data is fitted to a non-linear regression equation (log inhibitor vs response-variable slope 4-parameters)

T1 sequence (Q96P20 whole entry): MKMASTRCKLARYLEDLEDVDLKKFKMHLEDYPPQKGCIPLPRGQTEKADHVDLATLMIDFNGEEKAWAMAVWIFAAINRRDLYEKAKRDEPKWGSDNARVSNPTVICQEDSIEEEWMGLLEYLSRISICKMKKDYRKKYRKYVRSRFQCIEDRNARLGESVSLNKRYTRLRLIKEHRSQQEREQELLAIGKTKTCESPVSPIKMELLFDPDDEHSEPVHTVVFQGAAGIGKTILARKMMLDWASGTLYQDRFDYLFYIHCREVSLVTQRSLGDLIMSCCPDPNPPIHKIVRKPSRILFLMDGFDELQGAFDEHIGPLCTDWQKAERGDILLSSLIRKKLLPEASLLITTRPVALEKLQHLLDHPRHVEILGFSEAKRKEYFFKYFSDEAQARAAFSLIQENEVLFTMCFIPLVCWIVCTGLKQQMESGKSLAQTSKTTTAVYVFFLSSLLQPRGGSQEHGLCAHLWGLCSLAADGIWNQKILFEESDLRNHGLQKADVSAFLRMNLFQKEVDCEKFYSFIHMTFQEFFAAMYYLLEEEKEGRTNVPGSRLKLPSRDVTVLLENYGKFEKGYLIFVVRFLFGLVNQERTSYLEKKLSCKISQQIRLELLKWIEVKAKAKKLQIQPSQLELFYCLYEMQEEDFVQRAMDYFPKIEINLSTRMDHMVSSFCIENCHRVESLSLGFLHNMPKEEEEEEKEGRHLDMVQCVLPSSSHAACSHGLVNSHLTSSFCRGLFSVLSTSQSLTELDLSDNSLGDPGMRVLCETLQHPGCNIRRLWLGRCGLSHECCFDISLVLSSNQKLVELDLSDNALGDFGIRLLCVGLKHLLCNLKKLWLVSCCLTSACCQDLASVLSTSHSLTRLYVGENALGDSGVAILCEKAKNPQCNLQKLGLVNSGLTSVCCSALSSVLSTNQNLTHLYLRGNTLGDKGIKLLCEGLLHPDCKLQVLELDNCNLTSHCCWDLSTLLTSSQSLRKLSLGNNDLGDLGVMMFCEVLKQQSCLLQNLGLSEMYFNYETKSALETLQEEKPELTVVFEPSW

| SMILES | IC50 (NLRP3 [1]) | IC50 (NLRP3 [2]) |
| --- | --- | --- |
| COc1cc(-c2ccc3c(c2NC(=O)NS(=O)(=O)c2cn(C(C)C)c(=O)cn2)CCC3)ccn1 [Example 73, 4-Isopropyl-N-((5-(2-methoxypyridin-4-yl)-2,3-dihydro-1H-inden-4-yl)carbamoyl)-5-oxo-4,5-dihydropyrazine-2-sulfonamide, partial ammonium salt] | ≤ 0.5 µM | ≤ 0.5 µM |
| COc1cc(-c2ccc3c(c2NC(=O)NS(=O)(=O)c2ccn(C(C)(C)CN4CC(C)C4)n2)CCC3)ccn1 [Example 236, N-((5-(2-Methoxypyridin-4-yl)-2,3-dihydro-1H-inden-4-yl)carbamoyl)-1-(2-methyl-1-(3-methylazetidin-1-yl)propan-2-yl)-1H-pyrazole-3-sulfonamide] | ≤ 0.5 µM | ≤ 0.5 µM |
| CC(C)n1ccc(S(=O)(=O)NC(=O)Nc2c(-c3ccnc(OC4CCOC4)c3)ccc3c2CCC3)n1 (centres unmarked) [Example 291, 1-Isopropyl-N-((5-(2-((tetrahydrofuran-3-yl)oxy)pyridin-4-yl)-2,3-dihydro-1H-inden-4-yl)carbamoyl)-1H-pyrazole-3-sulfonamide, sodium salt] | ≤ 0.5 µM | ≤ 1 µM |
| CC(C)n1ccc(S(=O)(=O)NC(=O)Nc2c(-c3cc[nH]c(=O)c3)ccc3c2CCC3)n1 [Example 218, 1-Isopropyl-N-((5-(2-oxo-1,2-dihydropyridin-4-yl)-2,3-dihydro-1H-inden-4-yl)carbamoyl)-1H-pyrazole-3-sulfonamide] | ≤ 0.5 µM | ≤ 1 µM |
| CC(C)(O)c1coc(S(=O)(=O)NC(=O)Nc2c3c(nn2-c2ccncc2)CCC3)c1 [Example 323, 4-(2-Hydroxypropan-2-yl)-N-((2-(pyridin-4-yl)-2,4,5,6-tetrahydrocyclopenta[c]pyrazol-3-yl)carbamoyl)furan-2-sulfonamide] | ≤ 5 µM | ≤ 0.5 µM |
| Cc1cc(-c2ccc3c(c2NC(=O)NS(=O)(=O)c2ccn(C4CC4)n2)CCC3)ccn1 [Example 270, 1-Cyclopropyl-N-((5-(2-methylpyridin-4-yl)-2,3-dihydro-1H-inden-4-yl)carbamoyl)-1H-pyrazole-3-sulfonamide, sodium salt] | ≤ 0.5 µM | ≤ 0.5 µM |
| N#Cc1cc(-c2ccc3c(c2NC(=O)NS(=O)(=O)c2ccn(CC4CC4)n2)CCC3)ccn1 [Example 271, N-((5-(2-Cyanopyridin-4-yl)-2,3-dihydro-1H-inden-4-yl)carbamoyl)-1-(cyclopropylmethyl)-1H-pyrazole-3-sulfonamide] | ≤ 0.5 µM | ≤ 0.5 µM |
| COc1cc(-c2ccc3c(c2NC(=O)NS(=O)(=O)c2cnn(C(C)C)c2)CCC3)ccn1 [Example 250, 1-Isopropyl-N-((5-(2-methoxypyridin-4-yl)-2,3-dihydro-1H-inden-4-yl)carbamoyl)-1H-pyrazole-4-sulfonamide, sodium salt] | ≤ 0.5 µM | ≤ 0.5 µM |
| COc1cc(-c2cc(F)c3c(c2NC(=O)NS(=O)(=O)c2ccn(C4CC4)n2)CCC3)ccn1 [Example 170, 1-Cyclopropyl-N-((7-fluoro-5-(2-methoxypyridin-4-yl)-2,3-dihydro-1H-inden-4-yl)carbamoyl)-1H-pyrazole-3-sulfonamide, sodium salt] | ≤ 0.5 µM | ≤ 1 µM |
| COc1cc(-c2ccc3c(c2NC(=O)NS(=O)(=O)c2cc(N(C)C)cnn2)CCC3)ccn1 [Example 120, 5-(Dimethylamino)-N-((5-(2-methoxypyridin-4-yl)-2,3-dihydro-1H-inden-4-yl)carbamoyl) pyridazine-3-sulfonamide] | ≤ 0.5 µM | ≤ 5 µM |
| CC(C)(C#N)n1ccc(S(=O)(=O)NC(=O)Nc2c(-c3ccnc(OC(F)F)c3)ccc3c2CCO3)n1 [Example 195, 1-(2-Cyanopropan-2-yl)-N-((5-(2-(difluoromethoxy)pyridin-4-yl)-2,3-dihydrobenzofuran-4-yl)carbamoyl)-1H-pyrazole-3-sulfonamide] | ≤ 0.5 µM | ≤ 0.5 µM |
| CC(C)n1ccc(S(=O)(=O)NC(=O)Nc2c(-c3ccnc(OC(F)F)c3)ccc3c2CCC3)n1 [Example 237, N-((5-(2-(Difluoromethoxy)pyridin-4-yl)-2,3-dihydro-1H-inden-4-yl)carbamoyl)-1-isopropyl-1H-pyrazole-3-sulfonamide, sodium salt] | ≤ 0.5 µM | ≤ 1 µM |
| O=C(Nc1c(-c2ccncc2)ccc2c1CCC2)NS(=O)(=O)c1ccn(C2CC2)n1 [Example 303, 1-Cyclopropyl-N-((5-(pyridin-4-yl)-2,3-dihydro-1H-inden-4-yl)carbamoyl)-1H-pyrazole-3-sulfonamide] | ≤ 0.5 µM | ≤ 0.5 µM |
| COc1cc(-c2ccc3c(c2NC(=O)NS(=O)(=O)c2ccn(C(C)(C)CN4CCC4)n2)CCC3)ccn1 [Example 219, 1-(1-(Azetidin-1-yl)-2-methylpropan-2-yl)-N-((5-(2-methoxypyridin-4-yl)-2,3-dihydro-1H-inden-4-yl)carbamoyl)-1H-pyrazole-3-sulfonamide] | ≤ 0.5 µM | ≤ 0.5 µM |
| CC(C)c1cc(F)cc(-c2cncnc2)c1NC(=O)NS(=O)(=O)c1cc(C(=O)N(C)C)n(C)n1 [Example 32, 3-(N-((4-Fluoro-2-iso-propyl-6-(pyrimidin-5-yl)phenyl)carbamoyl)sulfamoyl)-N,N,1-trimethyl-1H-pyrazole-5-carboxamide, sodium salt] | ≤ 0.5 µM | ≤ 0.5 µM |
| CC(C)n1ccc(S(=O)(=O)NC(=O)Nc2c(-c3ccnc(C#N)c3)cc(Cl)c3c2CCC3)n1 [Example 225, N-((7-Chloro-5-(2-cyanopyridin-4-yl)-2,3-dihydro-1H-inden-4-yl)carbamoyl)-1-isopropyl-1H-pyrazole-3-sulfonamide, sodium salt] | ≤ 0.5 µM | ≤ 5 µM |
| CC(C)Oc1cc(-c2cc(F)cc(C(C)C)c2NC(=O)NS(=O)(=O)c2cc(C(=O)N(C)C)n(C)n2)ccn1 [Example 168, 3-(N-((4-Fluoro-2-(2-isopropoxypyridin-4-yl)-6-isopropyl-phenyl)carbamoyl)sulfamoyl)-N,N,1-trimethyl-1H-pyrazole-5-carboxamide, sodium salt] | ≤ 0.5 µM | ≤ 5 µM |
| COc1cc(-c2ccc3c(c2NC(=O)NS(=O)(=O)OC2CCN(C)C2)CCC3)ccn1 (centres unmarked) [Example 284, 1-Methylpyrrolidin-3-yl (5-(2-methoxypyridin-4-yl)-2,3-dihydro-1H-inden-4-yl)carbamoylsulfamate] | ≤ 0.5 µM | ≤ 1 µM |
| CCN(CCCS(=O)(=O)NC(=O)Nc1c(-c2ccncc2)cc(F)c2c1CCC2)Cc1ccccc1 [Example 153, 3-(Benzyl(ethyl)amino)-N-((7-fluoro-5-(pyridin-4-yl)-2,3-dihydro-1H-inden-4-yl)carbamoyl)propane-1-sulfonamide] | ≤ 0.5 µM | ≤ 5 µM |
| CC(C)n1ccc(S(=O)(=O)NC(=O)Nc2c(-c3cccnc3)ccc3c2CCCC3)n1 [Example 179, 1-Isopropyl-N-((2-(pyridin-3-yl)-5,6,7,8-tetrahydronaphthalen-1-yl)carbamoyl)-1H-pyrazole-3-sulfonamide] | ≤ 5 µM | ≤ 5 µM |
| CCN(CC)CCCS(=O)(=O)NC(=O)Nc1c(-c2cccnc2)cc(F)cc1C(C)C [Example 58, 3-(Diethylamino)-N-((4-fluoro-2-isopropyl-6-(pyridin-3-yl)phenyl)carbamoyl)propane-1-sulfonamide] | ≤ 0.5 µM | ≤ 0.5 µM |
| CCOc1cc(-c2cc(F)cc(C(C)C)c2NC(=O)NS(=O)(=O)c2ccn(C(C)C)n2)ccn1 [Example 24, N-((2-(2-Ethoxypyridin-4-yl)-4-fluoro-6-iso-propylphenyl)carbamoyl)-1-iso-propyl-1H-pyrazole-3-sulfonamide] | ≤ 0.5 µM | ≤ 1 µM |
| COc1cc(-c2ccc3c(c2NC(=O)NS(=O)(=O)c2ccn(C4CCC4)n2)CCC3)ccn1 [Example 244, 1-Cyclobutyl-N-((5-(2-methoxypyridin-4-yl)-2,3-dihydro-1H-inden-4-yl)carbamoyl)-1H-pyrazole-3-sulfonamide, sodium salt] | ≤ 0.5 µM | ≤ 0.5 µM |
| N#Cc1cc(-c2ccc3c(c2NC(=O)NS(=O)(=O)c2ccn(C4CCC4)n2)CCC3)ccn1 [Example 227, N-((5-(2-Cyanopyridin-4-yl)-2,3-dihydro-1H-inden-4-yl)carbamoyl)-1-cyclobutyl-1H-pyrazole-3-sulfonamide] | ≤ 0.5 µM | ≤ 0.5 µM |
| CC(C)c1cc(F)cc(-c2ccnc(C#N)c2)c1NC(=O)NS(=O)(=O)c1cc(N(C)C)cnn1 [Example 118, N-((2-(2-Cyanopyridin-4-yl)-4-fluoro-6-isopropylphenyl)carbamoyl)-5-(dimethylamino)pyridazine-3-sulfonamide] | ≤ 0.5 µM | ≤ 1 µM |
